One molecule from patent US20230321055A1, “PREVENTIVE TREATMENT OF MIGRAINE” (priority 2022, published 2023) can be followed below.

The data set relates to participants with chronic migraine. In words: Same phase 3 study: safety and tolerability (adverse events, hepatic laboratory values), safety population. The format is in vivo, human. Here is the method:
A phase 3, multicenter, randomized, double-blind, placebo-controlled, parallel-group study was carried out to evaluate the efficacy, safety, and tolerability of atogepant for the prevention of chronic migraine. A total of 778 participants from 133 sites in North America, Europe, and East Asia were randomized to one of three treatment arms (placebo, Atogepant 30 mg BID, and Atogepant 60 mg QD) in a 1:1:1 ratio.
This study comprised a 4-week screening and baseline period, a 12-week double blind treatment period, and a follow-up period of 4 additional weeks. The total study duration was 20 weeks. Participant disposition information and other relevant participant screening information may also be found in FIG. 19.
The overall safety profile of the study was consistent with safety findings observed in previous studies of atogepant in an episodic migraine population. […] For the safety population, the mean treatment duration for atogepant 30 mg BID, atogepant 60 mg QD, and placebo group were 80.1 days, 79.7 days, and 80.3 days, respectively. Serious adverse events occurred in 2.7% of patients treated with atogepant 60 mg QD and 1.6% of patients treated with atogepant 30 mg BID, compared to 1.2% of patients with placebo.
Table 11 presents the number and percentage of participants with post-baseline hepatic-related laboratory parameter values of clinical interest. There were five participants who had post-baseline ALT or AST elevations (≥3*ULN), with 1/254 (0.4%), 2/255 (0.8%), and 2/257 (0.8%) in the placebo, atogepant 30 mg BID, and atogepant 60 mg QD groups, respectively. All cases in the atogepant dose groups were adjudicated as unlikely to be related to study drug. No participants met potential Hy's law criteria.

Where [1] appears, read: 30 mg BID, safety population (N = 257).
[2] abbreviates: 60 mg QD, safety population (N = 261).

Take `C[C@@H]1[C@H](c2c(F)ccc(F)c2F)C[C@H](NC(=O)c2cnc3c(c2)C[C@@]2(C3)C(=O)Nc3ncccc32)C(=O)N1CC(F)(F)F` [Atogepant, (S)—N—((3S,5S,6R)-6-methyl-2-oxo-1-(2,2,2-trifluoroethyl)-5-(2,3,6-trifluorophenyl)piperidin-3-yl)-2′-oxo-1′,2′,5,7-tetrahydrospiro[cyclopenta[b]pyridine-6,3′-pyrrolo[2,3-b]pyridine]-3-carboxamide]: under setting [1], the Deaths is recorded as 0 n (%); the “TEAE leading to treatment discontinuation” value is given as 13 (5.1) n (%); the “TEAEs, participants” value is reported as 145 (56.4) n (%); the “TESAE Anal abscess” value is reported as 1 (0.4) n (%). Further, under setting [1], the “TESAE Benign ovarian tumour” value was 1 (0.4) n (%), the “TESAE COVID-19” value is on record as 0 n (%), the “TESAE COVID-19 pneumonia” value is listed as 1 (0.4) n (%) and the “TESAE Cholelithiasis” value is on record as 0 n (%). Further, under setting [1], the “TESAE Epicondylitis” value was 0 n (%), the “TESAE Fall” value is 0 n (%), the “TESAE Hip fracture” value was 0 n (%) and the “TESAE Nasal septum deviation” value is 0 n (%). For the same molecule, the “TESAE Plasma cell myeloma” value under setting [1] was 0 n (%). Besides, under setting [2], the Deaths was 0 n (%), the “TESAE COVID-19” value is reported as 1 (0.4) n (%) and the “TESAE COVID-19 pneumonia” value is 0 n (%). Moreover, the “serious adverse events considered related to study treatment by the investigator” value (in vivo) is “None”.
